Results as given in patent US7893284B2 (Sterix Limited, priority 2004, dated 2011).
Values joined by “and” are separate entries in the source; they are usually repeats but may differ in a detail not shown here. Equal entries are not always repeated.

What was measured:
MDA MB 231 Cells = assay: Inhibition of glucose uptake, MDA MB 231; format: cell-based; conditions: 15 min, 2-deoxy-D-[1-3H]glucose
Description: (§1) To measure the inhibition of glucose uptake into cells, cells were plated into 12-well multi-well plates and grown to confluence. Cells were washed with phosphate-buffered saline (PBS) and incubated for 15 min in incubation buffer containing 1 μCi 2-deoxy-D-[1-^3H]glucose (NEN-Dupont, UK) per well in the absence or presence of potential inhibitors (0.1-10 μM). Uptake was terminated by washing the cells in cold (4° C.) PBS. The cells were solubilized in. Triton-X in 0.01M sodium hydroxide and processed for liquid scintillation counting (Singh et al., Molecular and Cellular Endocrinology, 160: 61-66, 2000).

[1] = test system: A2780 Ovarian Cancer Cells; assay: Cell proliferation IC50, A2780; format: cell-based; conditions: Homo sapiens
Description: (§2) The effect of drugs on the proliferation of cells was measured using a microtiter plate assay (Cell Titer 96 proliferation assay, Promega, Hampshire, UK).

MCF-7 cells [2] = assay: Inhibition of glucose uptake, MCF-7; format: cell-based; conditions: 15 min, 2-deoxy-D-[1-3H]glucose
Description: as §1

[3] = test system: MCF-7 breast cancer cell tumours; assay: MCF-7 Breast Cancer Nude Mouse Model (xenograft); format: in vivo, ICRF nude (nu/nu) mice; conditions: for tumour regression: 20 mg/kg p.o 5 times a week, 3 week dosing period; for tumour vasculature, FITC imaging: 20 mg/kg p.o; for tumour vasculature, FITC imaging / inhibition of tumour angiogenesis, FITC quantification: 3 weeks; for inhibition of tumour angiogenesis, FITC quantification: 20 mg/kg
Description: Adult female ICRF nude (nu/nu) mice were injected with 10×10^6 MCF-7 cells/0.1 ml Matrigel s.c and tumour growth was monitored weekly. When tumours reached 100-150 mm^3 in volume, the mice were divided into the following groups:
The mice were injected intravenously with 0.1 ml of 25 mg/ml FITC-Dextran solution 20 minutes prior to killing to allow the visualisation and quantification of tumour angiogenesis.

[4] = test system: A2780 Ovarian Cancer Cells; assay: A2780 cell number study with reversibility; format: cell-based; conditions: 0.5 uM; for Cell Number Day 0: Day 0 (start); for Cell Number Day 0 (reversibility ®) / Cell Number Day 3 (reversibility ®) / Cell Number Day 6 (reversibility ®): drug removed on day 3; for Cell Number Day 6: Day 6, drug continued
Description: A2780 Ovarian Cancer Cells; Three day study, cell number
(§3) STX 641® and STX 140® signify that the reversibility of the drug-induced effects of STX 641 and STX140 respectively were studied. For these studies the drug was removed on day 3, cells were washed with PBS, and then the culture medium was added.

[5] = test system: PC3 Prostate Cancer Cells; assay: Cell proliferation IC50, PC3; format: cell-based
Description: as §2

[6] = test system: MCF-7 Breast Cancer Cells; assay: Flow cytometric cell cycle analysis, MCF-7; format: cell-based; conditions: 500 nM; for G2/M arrest (cells in G2/M): 8 h, control 16%; for cells G2/M arrested: control 28%
Description: Flow cytometric cell cycle analysis was performed on 40% confluent populations of MCF-7s with 500 nM of compound.

[7] = test system: microvessel/tubule formation; assay: Inhibition of microvessel formation (image analysis, VEGF stimulated); format: cell-based; conditions: 2 ng/ml VEGF
Description: The effects of drugs on tubule formation (measured as a marker of their anti-angiogenic potential) was assessed using an Angiogenesis kit (TCS-Cellworks Ltd (Bucks, UK). For this, human umbilical vein endothelial cells (HUVECs) were cultured in a 24-well plate within a matrix of human diploid fibroblasts of dermal origin. The co-cultured cells were incubated throughout the experiment at 37° C. under 5% CO2 in a humidified incubator. On day 1, the culture medium was removed and replaced with medium containing the drugs under investigation. On days 4, 7 and 9, the medium was replaced with fresh medium containing the drugs under investigation. On day 11, the cells were washed with PBS and 70% ethanol (1 ml) added to each well for 30 min to fix the cells. After fixation, the cells were washed with blocking buffer (1 ml PBS+1% bovine serum albumin, Sigma, UK) and stained with either von Willebrand's factor or CD31. The extent of tubule formation was quantified by manual scoring or by computer analysis. Images were captured using a Kodak DC120 digital camera. In addition, details of changes in tubule formation induced by drugs were also recorded by high definition scanning of plates with some of the scans being presented as Photoshop processed images.
In each case the calibration was 1.0 pixels and the image area was 3211216. VEGF is vascular endothelial growth factor.

[8] = test system: PC3 Prostate Cancer Cells; assay: PC3 cell number study with reversibility; format: cell-based; conditions: 0.5 uM; for Cell Number Day 0: Day 0 (start); for Cell Number Day 0 (reversibility ®) / Cell Number Day 3 (reversibility ®) / Cell Number Day 6 (reversibility ®): drug removed on day 3; for Cell Number Day 6: Day 6, drug continued
Description: PC3 Prostate Cancer Cells; Three day study, cell number
as §3

Liver sulphatase = molecular target: T1, Liver sulphatase (Mus musculus, UniProt P50427); assay: Liver sulphatase activity in nude mice; format: in vivo; conditions: 20 mg/kg p.o, 3 weeks
T1 construct: from tissue; host or cells: liver of ICRF nude (nu/nu) mice
T1 sequence (P50427 23-624): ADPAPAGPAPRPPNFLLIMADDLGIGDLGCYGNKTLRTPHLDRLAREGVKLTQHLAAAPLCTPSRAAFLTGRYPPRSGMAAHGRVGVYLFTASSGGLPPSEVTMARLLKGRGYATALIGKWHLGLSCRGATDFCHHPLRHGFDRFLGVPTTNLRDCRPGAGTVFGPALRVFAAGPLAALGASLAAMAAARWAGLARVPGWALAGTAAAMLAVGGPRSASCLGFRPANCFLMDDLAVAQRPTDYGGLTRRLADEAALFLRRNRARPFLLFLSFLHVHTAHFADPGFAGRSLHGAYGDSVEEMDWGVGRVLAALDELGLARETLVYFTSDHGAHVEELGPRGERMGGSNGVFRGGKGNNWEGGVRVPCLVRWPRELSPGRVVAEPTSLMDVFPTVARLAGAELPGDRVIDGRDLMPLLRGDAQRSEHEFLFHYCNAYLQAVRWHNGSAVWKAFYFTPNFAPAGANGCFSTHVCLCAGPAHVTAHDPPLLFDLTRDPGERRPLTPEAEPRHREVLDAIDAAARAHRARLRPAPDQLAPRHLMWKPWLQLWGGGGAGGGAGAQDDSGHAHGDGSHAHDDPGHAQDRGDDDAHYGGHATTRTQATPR
Description: Adult female ICRF nude (nu/nu) mice were injected with 10×10^6 MCF-7 cells/0.1 ml Matrigel s.c and tumour growth was monitored weekly. When tumours reached 100-150 mm^3 in volume, the mice were divided into the following groups: […]

MCF-7 cells [9] = assay: Cell proliferation, microtiter plate assay (Cell Titer 96), MCF-7; format: cell-based; conditions: Homo sapiens, MCF7; read-out: IC50 (μM) MCF-7 Breast Cancer Cells
Description: as §2

[10] = test system: A2780 Ovarian Cancer Cells; assay: Clonogenicity in A2780 Ovarian Cancer Cells; format: cell-based
Excerpt: Clonogenicity in A2780 Ovarian Cancer Cells

Compound | % Inhibition of Glucose Uptake MDA MB 231 Cells (MDA MB 231 Cells) [%] | IC50 [1] [µM] | % Inhibition of Glucose Uptake MCF-7 Cells (MCF-7 cells [2]) [%] | tumour regression [3] [%] | tumour vasculature, FITC imaging [3] | inhibition of tumour angiogenesis, FITC quantification [3] [%] | Cell Number Day 0 [4] | Cell Number Day 0 (reversibility ®) [4] | Cell Number Day 3 [4] | Cell Number Day 3 (reversibility ®) [4] | Cell Number Day 6 [4] | Cell Number Day 6 (reversibility ®) [4] | IC50 [5] [µM] | G2/M arrest (cells in G2/M) [6] [%] | cells G2/M arrested ([6]; 24 h) [%] | apoptotic sub-G1 population ([6]; 48 h) | Cell Number Day 0 [8] | Cell Number Day 0 (reversibility ®) [8] | Cell Number Day 3 [8] | Cell Number Day 3 (reversibility ®) [8] | other results
COc1cc2c(cc1OS(N)(=O)=O)CCC1C2CC[C@@]2(C)C1CC[C@@H]2CC#N (stereo in doubt) [Compound 33, Sulfamic acid 17-cyanomethyl-2-methoxy-13-methyl-7,8,9,11,12,13,14,15,16,17-decahydro-6H-cyclopenta[a]phenanthren-3-yl ester] | 60 | 0.09 | 28 | 25 | disrupted and ill defined | 60 | 1326000 | 1326000 | 345084 | 345084 | 78734.83 | 88680 | 0.05 | 27 | 68 | no significant increase | 168552.3 | 168552.3 | 117351 | 117351 | S-phase population ([6]; 24 h, decrease from 30%): 9%; G1 population ([6]; 24 h, decrease from 37%): 15%; G2/M arrest ([6]; 48 h): still G2/M-arrested; Field Area ([7]; 20 nM, listed as STX 641): 593238 and 605489 and 582954; Mean Tubule Length ([7]; 20 nM, listed as STX 641): 49.66 and 36.11 and 36.47; Field Area ([7]; 40 nM, listed as STX 641): 588528 and 597370 and 591356; No of Junctions ([7]; 40 nM, listed as STX 641): 3 and 4; No of Tubules ([7]; 40 nM, listed as STX 641): 6 and 7 and 5; Cell Number Day 6 [8]: 84191.33; Cell Number Day 6 (reversibility ®) [8]: 95845.33; Liver sulphatase activity inhibition (Liver sulphatase): nearly completely inhibited; IC50 (MCF-7 cells [9]): 0.15 µM; % clonogenicity (relative to untreated cells) ([10]; 0.25 μM): 0.24%; % clonogenicity (relative to untreated cells) ([10]; 1 μM): 0.00%
COc1cc2c(cc1OS(N)(=O)=O)CCC1C2CC[C@@]2(C)C1CC[C@@H]2OS(N)(=O)=O (stereo partly shown) [STX 140, reference compound] | 77 | 0.28 | 68 | 59 | disrupted and ill defined | 40 | 1326000 | 1326000 | 679663.3 | 679663.3 | 204255.5 | 462869.8 | 0.27 | 27 | 28 | increasing population of sub-G1 cells | 168552.3 | 168552.3 | 125218.67 | 125218.67 | sub-G1 population (indicative of apoptosis) ([6]; 24 h, control 2%): 36%; Field Area ([7]; 20 nM): 749415 and 687717 and 674918; Mean Tubule Length ([7]; 20 nM): 117.48 and 111.59 and 89.04; No of Junctions ([7]; 20 nM): 25 and 22 and 26; No of Tubules ([7]; 20 nM): 115 and 94 and 92; Total Tubule Length ([7]; 20 nM): 13509.76 and 10489.22 and 8191.48; Field Area ([7]; 40 nM): 627527 and 619251 and 638786; Mean Tubule Length ([7]; 40 nM): 82.83 and 96.29 and 80.44; No of Tubules ([7]; 40 nM): 37 and 40 and 45; Total Tubule Length ([7]; 40 nM): 3064.85 and 3851.64 and 3619.74; Cell Number Day 6 [8]: 100059; Cell Number Day 6 (reversibility ®) [8]: 197780; Liver sulphatase activity inhibition (Liver sulphatase): nearly completely inhibited; IC50 (MCF-7 cells [9]): 0.25 µM; % clonogenicity (relative to untreated cells) ([10]; 0.25 μM): 64.42%; % clonogenicity (relative to untreated cells) ([10]; 1 μM): 0.04%
